What was measured:
[1] = test system: antibodies in sera of individuals which have been and/or are infected by SARS-CoV (SARS-green, SARS-yellow, 1a, 1b, 2, 6, 37, 62, London); assay type: binding, human
[2] = test system: antibodies in rabbit serum obtained by immunizing a rabbit with the SARS-CoV strain Frankfurt 1; assay type: binding
[3] = test system: antibodies in control sera (pooled serum of 10 healthy LUMC hospital workers; commercial negative donor pooled serum); assay type: binding, human

Sequence | recognition by sera of SARS-CoV infected individuals, looped/cyclic form [1] | recognition by rabbit serum [2] | recognition by sera of SARS-CoV infected individuals (domains homologous with OC43 spike) [1] | recognition by control sera (domains homologous with OC43 spike) [3]
ALGKLQDVVNQNAQA [SEQ ID NO:954] | recognized in looped/cyclic form | recognized by the rabbit serum | – | –
GKLQDVVNQNAQALN [SEQ ID NO:956] | recognized in looped/cyclic form | recognized by the rabbit serum | – | –
GYHLMSFPQAAPHGVVFLHVTYVPSQERNFTTAPAICHEGKAYFPREG [SEQ ID NO:1247] | – | – | recognition by sera derived from individuals which have been and/or are still infected by SARS-CoV | recognition by control sera derived from individuals which have not been infected by SARS-CoV
KLQDVVNQNAQALNT [SEQ ID NO:957] | recognized in looped/cyclic form | recognized by the rabbit serum | – | –
KPTKRSFIEDLLF [SEQ ID NO:1244] | – | – | recognition by sera derived from individuals which have been and/or are still infected by SARS-CoV | recognition by control sera derived from individuals which have not been infected by SARS-CoV
LGKLQDVVNQNAQAL [SEQ ID NO:955] | recognized in looped/cyclic form | recognized by the rabbit serum | – | –
RCTTFDDVQAPNYTQ [SEQ ID NO:57] | – | recognized by the rabbit serum | – | –
SDFTDSVRDPKTSEI [SEQ ID NO:584] | – | recognized by the rabbit serum | – | –
STALGKLQDVVNQNA [SEQ ID NO:952] | – | recognized by the rabbit serum | – | –
TALGKLQDVVNQNAQ [SEQ ID NO:953] | – | recognized by the rabbit serum | – | –
TDSVRDPKTSEILDI [SEQ ID NO:587] | – | recognized by the rabbit serum | – | –
TFDDVQAPNYTQHTS [SEQ ID NO:60] | – | recognized by the rabbit serum | – | –
TFMLKYDENGTITDA [SEQ ID NO:289] | – | recognized by the rabbit serum | – | –
TSTALGKLQDVVNQN [SEQ ID NO:951] | – | recognized by the rabbit serum | – | –
TTFDDVQAPNYTQHT [SEQ ID NO:59] | – | recognized by the rabbit serum | – | –
TTFMLKYDENGTITD [SEQ ID NO:288] | – | recognized by the rabbit serum | – | –
TTSTALGKLQDVVNQ [SEQ ID NO:950] | recognized in looped/cyclic form | recognized by the rabbit serum | – | –
VLYENQKQIANQFNKAISQIQ [SEQ ID NO:1245] | – | – | recognition by sera derived from individuals which have been and/or are still infected by SARS-CoV | recognition by control sera derived from individuals which have not been infected by SARS-CoV
VQAPNYTQHTSSMRG [SEQ ID NO:64] | – | recognized by the rabbit serum | – | –
